{"source": "paper PMC13083723", "about": "(Patterns, 2026)"}
{"test_system": "Vero-E6 cells", "test": "cells", "format": "cell-based", "details": "not given"}
{"smiles": "CC(C)C[C@H](NC(=O)[C@H](Cc1ccccc1)NC(=O)CNC(=O)[C@H](C)NC(=O)[C@@H](N)Cc1ccc(O)cc1)C(=O)O", "note": "[SPE_K57927309]", "PL_Result": -0.1658}
{"smiles": "CC(COc1ccccc1Cc1ccccc1)N1CCCCC1", "note": "(stereo not drawn) [benproperine, reference compound]", "PLD propensity": "high PLD propensity"}
{"test_system": "Vero-E6 cells", "test": "cells", "format": "cell-based", "details": "Chlorocebus sabaeus, Vero C1008, 24 h, read-out: PL_Result", "units": {"activation at 10 µM": "%"}}
{"smiles": "CCN1CCC(n2cc(CNc3cc(Cl)c4ncc(C#N)c(Nc5ccc(F)c(Cl)c5)c4c3)nn2)CC1", "note": "[SPE_K49468759]", "activation at 10 µM": 33.2}
{"smiles": "Oc1cc2c(cc1O)CN(C(=S)NCCc1ccc(Cl)cc1)CCC2", "note": "[SPE_K44849676]", "activation at 10 µM": -5.94}
{"smiles": "C=C(c1ccc(C(=O)O)cc1)c1cc2c(cc1C)C(C)(C)CCC2(C)C", "note": "[SPE_K92441787]", "activation at 10 µM": -8.8}
{"smiles": "O=S(=O)(NCCCCCCc1ccccc1)c1cccc2c(Cl)cccc12", "note": "[SPE_K25875056]", "activation at 10 µM": -10.4}
{"smiles": "CC(C)c1c(NC(=O)Nc2ccc(Cl)cc2)c(=O)n(-c2ccccc2)n1C", "note": "[SPE_K16497916]", "activation at 10 µM": -9.16}
{"smiles": "COc1cc2c(cc1OC)[C@@H]1CC(=O)[C@@H](CC(C)C)CN1CC2", "note": "[SPE_K95739795]", "activation at 10 µM": -5.22}
{"smiles": "Oc1c(I)cc(Cl)c2cccnc12", "note": "[SPE_K09255212]", "activation at 10 µM": 3.03}
{"smiles": "N=C(N)NC(=O)c1cnccn1", "note": "[SPE_K61693562]", "activation at 10 µM": -1.49}
{"smiles": "OC(CN1CCN(c2cccc(Cl)c2)CC1)C(c1ccccc1)c1ccccc1", "note": "(stereo not drawn) [SPE_A51829654]", "activation at 10 µM": -10.3}
{"smiles": "CCC(=O)NO", "note": "[SPE_K11984358]", "activation at 10 µM": -5.92}
{"smiles": "C[C@@H]1CN(CCCn2c3ccccc3c3ccccc32)C[C@H](C)N1", "note": "[SPE_K70490179]", "activation at 10 µM": 109}
{"smiles": "Cc1cc2c(cc1C(F)(F)F)N(C(=O)Nc1ccc(Oc3cccnc3C)nc1)CC2", "note": "[SPE_K99968849]", "activation at 10 µM": 3.28}
{"smiles": "CC(C)(C)OC(=O)N[C@H]1CCCCC/C=C\\[C@@H]2C[C@@]2(C(=O)NS(=O)(=O)C2CC2)NC(=O)[C@@H]2C[C@@H](OC(=O)N3Cc4cccc(F)c4C3)CN2C1=O", "note": "[SPE_K08111240]", "activation at 10 µM": -7.46}
{"smiles": "CCCCc1ccc2[nH]c(NC(=O)OC)nc2c1", "note": "[SPE_K02407574]", "activation at 10 µM": -11.6}
{"smiles": "COc1ccc(C2C(=O)c3ccccc3C2=O)cc1", "note": "[SPE_K47458712]", "activation at 10 µM": -11.2}
{"smiles": "O=C(Nc1cc(Cl)cc(Cl)c1O)c1c(O)c(Cl)cc(Cl)c1Cl", "note": "[SPE_K07283971]", "activation at 10 µM": -4.07}
{"smiles": "O=[N+]([O-])c1cn2c(n1)OC[C@@H](OCc1ccc(OC(F)(F)F)cc1)C2", "note": "[SPE_K96671969]", "activation at 10 µM": -12.7}
{"smiles": "COc1ccc(Cl)c(Nc2nc3ccccc3nc2NS(=O)(=O)c2cccc(NC(=O)C(C)(C)N)c2)c1", "note": "[SPE_K49456274]", "activation at 10 µM": -4.27}
{"smiles": "C[C@H](O)[C@H](O)[C@H]1CNc2[nH]c(N)nc(=O)c2N1", "note": "[SPE_K36859431]", "activation at 10 µM": -1.35}
{"smiles": "O=C(/C=C/C=C/c1ccc2c(c1)OCO2)N1CCCCC1", "note": "[SPE_K59522102]", "activation at 10 µM": 2.7}
{"smiles": "Cn1cc(C(=O)C(=O)N[C@H]2CN3CCC2CC3)c2ccccc21", "note": "[SPE_K20714604]", "activation at 10 µM": 10.1}
{"smiles": "c1ccc(Cn2c(-c3ccc(OC[C@H](C4CCNCC4)n4c(-c5ccccc5)nc5ccccc54)cc3)nc3ccccc32)cc1", "note": "[SPE_K90830492]", "activation at 10 µM": 1.3}
{"smiles": "O=C(Nc1ccc(S(=O)(=O)Nc2ccccc2Cl)c(Cl)c1)c1ccccn1", "note": "[SPE_K72687424]", "activation at 10 µM": -10.9}
{"smiles": "CCN(CC)CCN(Cc1ccc(-c2ccc(C(F)(F)F)cc2)cc1)C(=O)Cn1c(SCc2ccc(F)cc2)nc(=O)c2c1CCC2", "note": "[SPE_K19085898]", "activation at 10 µM": -5.09}
{"smiles": "CN1CCN(CCc2ccc(Cl)c(Cl)c2)CC1", "note": "[SPE_K29668683]", "activation at 10 µM": 11.7}
{"smiles": "NC(=O)c1cccc2cn(-c3ccc([C@@H]4CCCNC4)cc3)nc12", "note": "[SPE_K54955827]", "activation at 10 µM": -6.71}
{"smiles": "CC(=O)C1(N)Cc2c(O)c3c(c(O)c2[C@@H](O[C@H]2C[C@H](O)[C@H](O)CO2)C1)C(=O)c1ccccc1C3=O", "note": "(stereo partly drawn) [SPE_K13843533]", "activation at 10 µM": 6.95}
{"smiles": "CN(C)C(=O)Oc1cccc([N+](C)(C)C)c1", "note": "[SPE_K18922609]", "activation at 10 µM": -9.73}
{"smiles": "COc1cc(N)c(Cl)cc1C(=O)NC1CN2CCC1CC2", "note": "(stereo not drawn) [SPE_A65615053]", "activation at 10 µM": -14.1}
{"smiles": "O=C(Cn1ccnc1[N+](=O)[O-])NCCO", "note": "[SPE_K96042922]", "activation at 10 µM": -3.79}
{"smiles": "Cc1c(C2CCN(CCc3ccccc3)CC2)noc1-c1ccc(Cl)cc1", "note": "[SPE_K13211965]", "activation at 10 µM": 49}
{"smiles": "COc1ccn2ncc(-c3nc4[nH]nc(NC(=O)c5ccc(F)cc5)c4cc3F)c2c1", "note": "[SPE_K84068331]", "activation at 10 µM": -16.5}
{"smiles": "O=C(O)[C@H](Cc1c[nH]c2ccccc12)N1C(=O)c2ccccc2C1=O", "note": "[SPE_K89391146]", "activation at 10 µM": -6.19}
{"smiles": "CCCCCCCCCCCCOS(=O)(=O)O", "note": "[SPE_K05680146]", "activation at 10 µM": 12.1}
{"smiles": "O=[N+]([O-])c1cc(Cl)ccc1S(=O)(=O)N1CCN(Cc2ccccc2)CC1", "note": "[SPE_K45519571]", "activation at 10 µM": 3.29}
{"smiles": "CC(C)NCC(O)c1ccc(O)c(O)c1", "note": "(stereo not drawn) [SPE_A04322457]", "activation at 10 µM": -1.28}
{"smiles": "CC(C)Oc1ccc2c(=O)c3cc(C(=O)O)ccc3oc2c1", "note": "[SPE_K59339270]", "activation at 10 µM": -2.83}
{"smiles": "O=C1Nc2cc(Cl)c(Cl)cc2N2CCNCC12", "note": "(stereo not drawn) [SPE_A62021152]", "activation at 10 µM": -10.8}
{"smiles": "CC(CN)CC(=O)O", "note": "(stereo not drawn) [SPE_A62890442]", "activation at 10 µM": -10.6}
{"smiles": "O=[N+]([O-])O[C@@H]1CO[C@H]2[C@@H]1OC[C@@H]2O", "note": "[SPE_K82225283]", "activation at 10 µM": -18.1}
{"smiles": "CN1Cc2c(C(=O)OC(C)(C)C)ncn2-c2ccsc2C1=O", "note": "[SPE_K80778372]", "activation at 10 µM": 4.64}
{"smiles": "c1ccc(CNCc2ccc(CN3CCCNCCNCCCNCC3)cc2)nc1", "note": "[SPE_K03019184]", "activation at 10 µM": -0.191}
{"smiles": "O=C(COc1ccc(C(=O)c2ccccc2)cc1)NC1CCN(Cc2ccccc2)CC1", "note": "[SPE_K68810443]", "activation at 10 µM": -3.96}
{"smiles": "Cc1cccc2c1CC[C@H](CN1CCC(c3c(Cl)cccc3Cl)CC1)C[C@@H]2O", "note": "[SPE_K08333979]", "activation at 10 µM": -2.39}
{"smiles": "Nc1ncn([C@@H]2O[C@H](CO)[C@@H](O)[C@H]2O)c(=O)n1", "note": "[SPE_K55026842]", "activation at 10 µM": -12.3}
{"smiles": "Cc1cc(OCc2nnc(SC3CCCC3)n2-c2cccnc2)ccc1-c1ccc(S(C)(=O)=O)cc1", "note": "[SPE_K26253904]", "activation at 10 µM": -0.282}
{"smiles": "c1cc(-c2cnn3cc(-c4ccc(N5CCNCC5)cc4)cnc23)c2cccnc2c1", "note": "[SPE_K59831625]", "activation at 10 µM": 29.5}
{"smiles": "Nc1nc2ccc(Cl)cc2c2nc(-c3ccco3)nn12", "note": "[SPE_K49049886]", "activation at 10 µM": 7.39}
{"smiles": "Fc1ccc(-c2c3cccc(C(F)(F)F)c3nn2Cc2ccc(F)cc2Cl)cc1", "note": "[SPE_K54520417]", "activation at 10 µM": -2.25}
{"smiles": "CC(C)(Oc1ccc(Cl)cc1)C(=O)O", "note": "[SPE_K19111024]", "activation at 10 µM": -0.104}
{"smiles": "Cc1ccc(-c2nc3ccc(C)cn3c2CC(=O)N(C)C)cc1", "note": "[SPE_K44876623]", "activation at 10 µM": -2.13}
{"smiles": "CCS(=O)(=O)N1CCC[C@@H]2CN3CCc4cc(OC)ccc4[C@@H]3C[C@@H]21", "note": "[SPE_K86600316]", "activation at 10 µM": -8.68}
{"smiles": "COc1cc(Oc2ccnc3cc(OC)c(OC)cc23)ccc1NC(=O)NC(C)c1nccs1", "note": "(stereo not drawn) [SPE_A88787317]", "activation at 10 µM": -0.267}
{"smiles": "CNC(=O)c1ccccc1Nc1nc(Nc2ccc(N3CCOCC3)cc2OC)ncc1Cl", "note": "[SPE_K21025364]", "activation at 10 µM": 15.8}
{"smiles": "CC(C)(C)NC[C@H](O)c1ccc(O)c(CO)c1", "note": "[SPE_K34469523]", "activation at 10 µM": -6.61}
{"smiles": "Cc1coc2c1C(=O)C(=O)c1c-2ccc2c(C)cccc12", "note": "[SPE_K34073885]", "activation at 10 µM": 1.44}
{"smiles": "CN(C)C(=N)NCCC[C@H](N)C(=O)O", "note": "[SPE_K36269323]", "activation at 10 µM": -6.39}
{"smiles": "COc1ccc2cc([C@H](C)C(=O)O)ccc2c1", "note": "[SPE_K59197931]", "activation at 10 µM": -3.31}
